Measurements published in US11427553B2, “Dihydrooxadiazinones” (Bayer Aktiengesellschaft, priority 2017, dated 2022).
Counter-ions that a name gives are not always drawn.

What was measured:
human full length PDE3B = human full length PDE3B (Homo sapiens (Human), UniProt Q13370); assay: Assay 5 PDE3B enzyme inhibition (3H-cAMP SPA); type: biochemical; conditions: Sf9 cell extract
In short: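 Sf9 cell extract expressing human full-length PDE3B, diluted for linear kinetics (<70% substrate use), in 50 mM Tris/HCl pH 7.5, 8.3 mM MgCl2, 1.7 mM EDTA. [8-3H]cAMP substrate, 60 min at room temperature; stopped with yttrium SPA beads, scintillation counting. IC50 from sigmoidal activity vs log concentration curves.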

HeLa cells = assay: Assay 1 cell proliferation measurement (CTG, 72 h), HeLa; type: cell-based, human; conditions: Homo sapiens, HeLa; Assay 1, 72 h, Cell Titer Glo; read-out: HeLa IC50 [nM] (Cervical cancer)
In short: (§1)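 CTG luminescence readout after 72 h compound exposure at 37 °C; 10-point 2.5-fold dilutions from 100 nM max final; DMSO 0.3% vehicle. IC50 from 4-parameter fit, normalised to 0 h plate (max inhibition) and DMSO (min inhibition).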

SK-MEL-3 cells = assay: Assay 1 cell proliferation measurement (CTG, 72 h), SK-MEL-3; type: cell-based, human; conditions: Homo sapiens, SK-MEL3; Assay 1, 72 h, Cell Titer Glo; read-out: SK-MEL-3 IC50 [nM] (melanoma)
In short: as §1

human full length PDE3A = human full length PDE3A (Homo sapiens (Human), UniProt Q14432); assay: Assay 4 PDE3A enzyme inhibition (3H-cAMP SPA); type: biochemical; conditions: Sf9 cell extract
human full length PDE3A, sequence (Q14432 whole entry): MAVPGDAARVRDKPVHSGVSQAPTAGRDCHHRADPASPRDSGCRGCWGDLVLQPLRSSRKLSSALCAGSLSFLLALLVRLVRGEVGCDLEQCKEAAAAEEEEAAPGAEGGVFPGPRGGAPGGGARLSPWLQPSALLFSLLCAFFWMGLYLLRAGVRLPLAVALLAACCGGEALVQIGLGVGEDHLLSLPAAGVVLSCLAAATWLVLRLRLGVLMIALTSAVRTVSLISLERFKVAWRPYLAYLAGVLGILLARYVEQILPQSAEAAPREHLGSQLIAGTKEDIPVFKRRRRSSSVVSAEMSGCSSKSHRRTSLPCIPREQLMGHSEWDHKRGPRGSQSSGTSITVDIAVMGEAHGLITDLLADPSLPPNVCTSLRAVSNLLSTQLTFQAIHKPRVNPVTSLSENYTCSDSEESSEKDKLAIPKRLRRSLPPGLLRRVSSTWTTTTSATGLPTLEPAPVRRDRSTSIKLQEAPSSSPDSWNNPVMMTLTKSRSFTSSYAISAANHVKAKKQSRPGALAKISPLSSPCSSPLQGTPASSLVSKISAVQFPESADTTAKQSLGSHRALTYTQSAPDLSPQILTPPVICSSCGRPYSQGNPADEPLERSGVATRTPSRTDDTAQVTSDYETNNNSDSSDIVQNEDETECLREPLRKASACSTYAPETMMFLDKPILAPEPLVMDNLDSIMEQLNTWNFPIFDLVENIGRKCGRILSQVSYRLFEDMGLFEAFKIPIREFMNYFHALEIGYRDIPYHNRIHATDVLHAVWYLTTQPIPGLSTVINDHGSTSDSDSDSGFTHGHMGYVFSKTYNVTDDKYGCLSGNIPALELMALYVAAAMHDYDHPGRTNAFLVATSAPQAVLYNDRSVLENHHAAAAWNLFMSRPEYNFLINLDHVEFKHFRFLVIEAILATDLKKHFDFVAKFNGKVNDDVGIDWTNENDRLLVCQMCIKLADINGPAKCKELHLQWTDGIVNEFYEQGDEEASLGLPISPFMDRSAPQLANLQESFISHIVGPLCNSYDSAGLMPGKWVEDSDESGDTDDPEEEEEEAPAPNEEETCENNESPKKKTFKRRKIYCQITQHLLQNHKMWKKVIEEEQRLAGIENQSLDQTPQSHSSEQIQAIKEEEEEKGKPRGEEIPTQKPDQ
In short: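 Enzyme: Sf9 extract with overexpressed full-length PDE3A; substrate [8-3H]cAMP, 0.025 μCi/well; 60 min, room temperature, Tris/HCl pH 7.5 buffer with MgCl2, EDTA, BSA.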

human full length PDE3B, sequence (Q13370 whole entry): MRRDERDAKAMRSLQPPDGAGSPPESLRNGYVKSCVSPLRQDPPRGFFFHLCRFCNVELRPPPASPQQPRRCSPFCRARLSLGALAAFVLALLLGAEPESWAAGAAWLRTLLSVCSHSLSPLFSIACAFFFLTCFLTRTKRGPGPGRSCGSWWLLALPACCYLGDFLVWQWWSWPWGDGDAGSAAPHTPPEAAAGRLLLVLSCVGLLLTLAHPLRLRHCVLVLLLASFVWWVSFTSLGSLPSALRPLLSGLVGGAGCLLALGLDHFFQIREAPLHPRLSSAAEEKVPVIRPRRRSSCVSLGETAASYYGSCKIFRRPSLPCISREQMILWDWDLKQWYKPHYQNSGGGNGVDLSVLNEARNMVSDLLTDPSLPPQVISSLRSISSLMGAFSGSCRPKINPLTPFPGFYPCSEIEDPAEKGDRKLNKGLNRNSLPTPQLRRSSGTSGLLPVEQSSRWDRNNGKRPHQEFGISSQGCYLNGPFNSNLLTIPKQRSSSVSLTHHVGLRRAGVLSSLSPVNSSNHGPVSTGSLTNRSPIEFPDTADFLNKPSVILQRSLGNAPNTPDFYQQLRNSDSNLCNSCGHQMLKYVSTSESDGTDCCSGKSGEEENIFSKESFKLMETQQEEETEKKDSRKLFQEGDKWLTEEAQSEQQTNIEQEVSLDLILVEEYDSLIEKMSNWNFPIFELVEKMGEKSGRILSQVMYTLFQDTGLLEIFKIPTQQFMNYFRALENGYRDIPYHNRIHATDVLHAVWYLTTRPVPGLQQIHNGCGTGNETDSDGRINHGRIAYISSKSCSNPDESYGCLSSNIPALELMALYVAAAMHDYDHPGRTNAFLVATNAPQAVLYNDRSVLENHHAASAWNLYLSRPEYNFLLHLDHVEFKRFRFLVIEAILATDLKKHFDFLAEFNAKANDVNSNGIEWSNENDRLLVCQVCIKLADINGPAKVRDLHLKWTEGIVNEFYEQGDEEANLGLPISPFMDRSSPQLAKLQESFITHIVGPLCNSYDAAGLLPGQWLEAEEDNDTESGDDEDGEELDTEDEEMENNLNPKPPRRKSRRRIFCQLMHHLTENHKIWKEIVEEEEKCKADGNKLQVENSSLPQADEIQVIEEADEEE

| Compound | IC50 (human full length PDE3B) [nM] | IC50 (HeLa cells) [nM] | IC50 (SK-MEL-3 cells) [nM] | IC50 (human full length PDE3A) [nM] |
| --- | --- | --- | --- | --- |
| O=C1NN=C(c2ccc(NCC3CC3)c(C(F)(F)F)c2)CO1 [Example 212, 5-{4-[(Cyclopropylmethyl)amino]-3-(trifluoromethyl)phenyl}-3,6-dihydro-2H-1,3,4-oxadiazin-2-one] | 24 | 1 | 2 | 26 |
| CC1(CNc2ccc(C3=NNC(=O)OC3)cc2C(F)(F)F)COC1 [Example 213, 5-[4-{[(3-Methyloxetan-3-yl)methyl]amino}-3-(trifluoromethyl)phenyl]-3,6-dihydro-2H-1,3,4-oxadiazin-2-one] | 71 | 14 | 21 | 68 |
| COCCCNc1ccc(C2=NNC(=O)OC2)cc1C(F)(F)F [Example 214, 5-{4-[(3-Methoxypropyl)amino]-3-(trifluoromethyl)phenyl}-3,6-dihydro-2H-1,3,4-oxadiazin-2-one] | 73 | 1 | 2 | 59 |
| C[C@@H](O)CNc1ccc(C2=NNC(=O)OC2)cc1C(F)(F)F [Example 216, 5-[4-{[(2R)-2-Hydroxypropyl]amino}-3-(trifluoromethyl)phenyl]-3,6-dihydro-2H-1,3,4-oxadiazin-2-one] | 167 | 6 | 7 | 103 |
| C[C@@H](O)CCNc1ccc(C2=NNC(=O)OC2)cc1C(F)(F)F [Example 217, 5-[4-{[(3R)-3-Hydroxybutyl]amino}-3-(trifluoromethyl)phenyl]-3,6-dihydro-2H-1,3,4-oxadiazin-2-one] | 210 | 14 | 16 | 65 |
| C[C@H](O)CNc1ccc(C2=NNC(=O)OC2)cc1C(F)(F)F [Example 218, 5-[4-{[(2S)-2-Hydroxypropyl]amino}-3-(trifluoromethyl)phenyl]-3,6-dihydro-2H-1,3,4-oxadiazin-2-one] | 89 | 3 | 4 | 35 |
| O=C1NN=C(c2ccc(NCC3(O)CCC3)c(C(F)(F)F)c2)CO1 [Example 219, 5-[4-{[(1-Hydroxycyclobutyl)methyl]amino}-3-(trifluoromethyl)phenyl]-3,6-dihydro-2H-1,3,4-oxadiazin-2-one] | 97 | 8 | 13 | 58 |
| CC(C)CCNc1ccc(C2=NNC(=O)OC2)cc1C(F)(F)F [Example 220, 5-{4-[(3-Methylbutyl)amino]-3-(trifluoromethyl)phenyl}-3,6-dihydro-2H-1,3,4-oxadiazin-2-one] | 131 | 6 | 14 | 90 |
| CC(C)CNc1ccc(C2=NNC(=O)OC2)cc1C(F)(F)F [Example 221, 5-{4-[(2-Methylpropyl)amino]-3-(trifluoromethyl)phenyl}-3,6-dihydro-2H-1,3,4-oxadiazin-2-one] | 56 | 1 | 2 | 28 |
| COCCNc1ccc(C2=NNC(=O)OC2)cc1C(F)(F)F [Example 222, 5-{4-[(2-Methoxyethyl)amino]-3-(trifluoromethyl)phenyl}-3,6-dihydro-2H-1,3,4-oxadiazin-2-one] | 120 | 1 | 1 | 76 |
| CCN(C)c1ccc(C2=NNC(=O)OC2)cc1C(F)(F)F [Example 223, 5-{4-[Ethyl(methyl)amino]-3-(trifluoromethyl)phenyl}-3,6-dihydro-2H-1,3,4-oxadiazin-2-one] | 100 | 6 | 9 | 140 |
| O=C1NN=C(c2ccc(NC[C@H]3CCCO3)c(C(F)(F)F)c2)CO1 [Example 225, 5-[4-({[(2R)-Oxolan-2-yl]methyl}amino)-3-(trifluoromethyl)phenyl]-3,6-dihydro-2H-1,3,4-oxadiazin-2-one] | 220 | 3 | 5 | 45 |
| O=C1NN=C(c2ccc(N3CC[C@@H](O)C3)c(C(F)(F)F)c2)CO1 [Example 257, 5-{4-[(3R)-3-Hydroxypyrrolidin-1-yl]-3-(trifluoromethyl)phenyl}-3,6-dihydro-2H-1,3,4-oxadiazin-2-one] | 120 | 6 | 9 | 75 |
| COC(C)(C)CNc1ccc(C2=NNC(=O)OC2)cc1C(F)(F)F [Example 258, 5-{4-[(2-Methoxy-2-methylpropyl)amino]-3-(trifluoromethyl)phenyl}-3,6-dihydro-2H-1,3,4-oxadiazin-2-one] | 130 | 3 | 6 | 41 |
| O=C1NN=C(c2ccc(NC[C@@H]3CCCO3)c(C(F)(F)F)c2)CO1 [Example 259, 5-[4-({[(2S)-Oxolan-2-yl]methyl}amino)-3-(trifluoromethyl)phenyl]-3,6-dihydro-2H-1,3,4-oxadiazin-2-one] | 110 | 1 | 3 | 34 |
| O=C1NN=C(c2ccc(N[C@H]3CCC[C@H]3O)c(C(F)(F)F)c2)CO1 [Example 261, 5-[4-{[(1S,2R)-2-Hydroxycyclopentyl]amino}-3-(trifluoromethyl)phenyl]-3,6-dihydro-2H-1,3,4-oxadiazin-2-one] | 600 | 38 | > 100 | 550 |
| O=C1NN=C(c2ccc(NC3COC3)c(C(F)(F)F)c2)CO1 [Example 262, 5-{4-[(Oxetan-3-yl)amino]-3-(trifluoromethyl)phenyl}-3,6-dihydro-2H-1,3,4-oxadiazin-2-one] | 20 | 2 | 5 | 18 |
| CC(C)n1cc(-c2ccc(C3=NNC(=O)OC3)cc2C(F)F)cn1 [Example 263, 5-{3-(Difluoromethyl)-4-[1-(propan-2-yl)-1H-pyrazol-4-yl]phenyl}-3,6-dihydro-2H-1,3,4-oxadiazin-2-one] | 46 | 9 | 32 | 50 |
| O=C1NN=C(c2cc(F)c(N3CCOCC3)c(C(F)(F)F)c2)CO1 [Example 264, 5-[3-Fluoro-4-(morpholin-4-yl)-5-(trifluoromethyl)phenyl]-3,6-dihydro-2H-1,3,4-oxadiazin-2-one] | 112 | 2 | 2 | 75 |
| O=C1NN=C(c2ccc([C@H]3CC[C@H](O)CC3)c(C(F)(F)F)c2)CO1 [Example 272, (trans)-5-{4-[4-hydroxycyclohexyl]-3-(trifluoromethyl)phenyl}-3,6-dihydro-2H-1,3,4-oxadiazin-2-one] | 10 | 1 | 1 | 19 |
| O=C1NN=C(c2ccc([C@H]3CC[C@@H](O)CC3)c(C(F)(F)F)c2)CO1 [Example 273, (cis)-5-{4-[4-Hydroxycyclohexyl]-3-(trifluoromethyl)phenyl}-3,6-dihydro-2H-1,3,4-oxadiazin-2-one] | 53 | 1 | 1 | 44 |
| NCCNc1ccc(C2=NNC(=O)OC2)cc1C(F)(F)F [Example 274, 5-{4-[(2-Aminoethyl)amino]-3-(trifluoromethyl)phenyl}-3,6-dihydro-2H-1,3,4-oxadiazin-2-one-salt with hydrochloric acid] | 400 | 19 | 31 | 300 |
| CC(C)(O)c1ccc(C2=NNC(=O)OC2)cc1C(F)(F)F [Example 278, 5-[4-(2-Hydroxypropan-2-yl)-3-(trifluoromethyl)phenyl]-3,6-dihydro-2H-1,3,4-oxadiazin-2-one] | > 1000 | 58 | 80 | > 1000 |
| CC(C)(O)CCNc1ccc(C2=NNC(=O)OC2)cc1C(F)(F)F [Example 319, 5-{4-[(3-hydroxy-3-methylbutyl)amino]-3-(trifluoromethyl)phenyl}-3,6-dihydro-2H-1,3,4-oxadiazin-2-one] | 180 | 61 | > 100 | 70 |
| CC(C)(N)CNc1ccc(C2=NNC(=O)OC2)cc1C(F)(F)F [Example 321, 5-{4-[(2-amino-2-methylpropyl)amino]-3-(trifluoromethyl)phenyl}-3,6-dihydro-2H-1,3,4-oxadiazin-2-one] | 500 | > 100 | 54 | 290 |
| CN(C)CCNc1ccc(C2=NNC(=O)OC2)cc1C(F)(F)F [Example 323, 5-[4-{[2-(dimethylamino)ethyl]amino}-3-(trifluoromethyl)phenyl]-3,6-dihydro-2H-1,3,4-oxadiazin-2-one] | > 910 | > 84 | > 100 | > 280 |
| CN(C)CCN(C)c1ccc(C2=NNC(=O)OC2)cc1C(F)(F)F [Example 324, 5-[4-{[2-(dimethylamino)ethyl](methyl)amino}-3-(trifluoromethyl)phenyl]-3,6-dihydro-2H-1,3,4-oxadiazin-2-one] | > 1000 | > 100 | > 100 | > 1000 |
